How the values were obtained:
[1] = system: subjects with type 1 diabetes; assay: 52-week randomized controlled clinical trial, basal insulin + prandial TI Inhalation Powder versus basal insulin + SC insulin aspart; type: in vivo, human; conditions: with basal insulin glargine
Description: This was a prospective, multi-country, multicenter, open label, randomized, controlled clinical trial comparing glycemic control in subjects with type 1 diabetes receiving basal insulin and prandial insulin-FDKP (TI) Inhalation Powder (TI Inhalation Powder group) with subjects receiving basal insulin and SC rapid-acting insulin aspart (comparator group). This study included a 52-week treatment phase and a 4-week follow- up phase. During the 4-week follow-up phase, pulmonary function and select clinical laboratory assessments were scheduled.
The study began with enrollment at Week−3. Subjects received a complete battery of safety and eligibility assessments, including HbA1c and fasting plasma glucose (FPG).
At Week−1, subjects were randomized to one of the following 2 treatments: Basal insulin+prandial TI Inhalation Powder Basal insulin+prandial SC rapid-acting insulin
At Week-1, subjects again completed the first three components of the Insulin Treatment Questionnaire (ITQ) for the purpose of assessing test-retest reliability only). After completing the questionnaire, subjects randomized to the TI Inhalation Powder group were trained on the MEDTONE® Inhaler using TECHNOSPHERE®/insulin (insulin-FDKP) inhalation powder; subjects in the comparator group were trained in the use of the NOVOLOG® pens; all subjects were trained in administration of LANTUS®. Additionally, all subjects were trained on a blood glucose monitoring (HBGM) meter provided at the beginning of the trial and diary and received diabetes education. Any training was repeated at Week 0, if needed.
At the beginning of the treatment phase, subjects had several titration/dose evaluation visits to adjust insulin therapy. Titration visits occurred once a week for the first 4 weeks. During Weeks 4 through 10, there were three telephone “visits” (at Week 6, Week 8, and Week 10) to titrate dose, if necessary. However, dose titration was allowed throughout the trial.
All subjects completed a 7-point blood glucose profile on any 3 days during the week immediately preceding each visit from Week 0 to Week 52. The 7 time points included samples from before breakfast and 2 hours after breakfast, before the mid-day meal and 2 hours after the mid-day meal, before the evening meal and 2 hours after the evening meal and at bedtime (7 time points a day, over 3 days). These blood glucose (BG) values were recorded in the HBGM diary that was collected at clinic visits. […]
A meal challenge test was performed at Week 4 (during dose titration), Week 26, and Week 52. […] Blood glucose (BG) was also measured using HBGM glucose meters to aid the Investigator in treatment decisions and values were obtained at −30, 0, 60, and 120 minutes during the meal challenge. […]

[2] = system: subjects with type 2 diabetes; assay: Meal challenge test, Amendment 1 (A1): blood glucose, endogenous glucose production, glucose disappearance; type: in vivo, human; conditions: 60 U and 90 U insulin-FDKP groups, 10 U lispro, FIG. 11
Procedure: Following the completion of the meal challenge, the data was analyzed as per the statistical analysis plan. […] The study was amended (A1) and included 12 subjects (10 were reenrolled from the first meal challenge), and only two treatments, which were 10 U lispro and 60 and 90 U TI. The doses were selected based on the relative bioavailability observed following the first meal challenge (OP), where under an assumption of linear kinetics, 10 U lispro and 60 U TI would result in similar exposure. The 90 U dose group was included to assess the effect of the highest dose group of TI studied in Phase 3 trials. Six of the 12 subjects received 60 U TI and the other 6 subjects received 90 U TI. All 12 subjects received 10 U lispro in a crossover fashion. Methods and results below are described in terms of the Original Protocol (OP), which includes the meal challenge in 18 subjects with three treatments (EXUBERA®, lispro and TI) and Amendment 1 (A1), which includes 12 subjects treated with only TI and lispro. […] The subjects were screened and evaluated before, during and after the experiments and their data analyzed as described below. […] Blood glucose concentrations were measured at regular intervals from arterialized venous blood samples. […]

[3] = human, in vivo
Procedure: The insulin-FDKP formulation is administered to the subjects by oral inhalation using a MEDTONE® dry powder inhaler (MannKind Corp.). Following the completion of the meal challenge, the data was analyzed as per the statistical analysis plan. […] The study was amended (A1) and included 12 subjects (10 were reenrolled from the first meal challenge), and only two treatments, which were 10 U lispro and 60 and 90 U TI. The doses were selected based on the relative bioavailability observed following the first meal challenge (OP), where under an assumption of linear kinetics, 10 U lispro and 60 U TI would result in similar exposure. The 90 U dose group was included to assess the effect of the highest dose group of TI studied in Phase 3 trials. Six of the 12 subjects received 60 U TI and the other 6 subjects received 90 U TI. All 12 subjects received 10 U lispro in a crossover fashion. Methods and results below are described in terms of the Original Protocol (OP), which includes the meal challenge in 18 subjects with three treatments (EXUBERA®, lispro and TI) and Amendment 1 (A1), which includes 12 subjects treated with only TI and lispro. […] The subjects were screened and evaluated before, during and after the experiments and their data analyzed as described below. […]

[4] = system: subjects with type 2 diabetes; assay: Meal challenge test, Original Protocol (OP): blood glucose, endogenous glucose production, glucose disappearance; type: in vivo, human; conditions: 45 U insulin-FDKP, 12 U sc lispro, 4 mg EXUBERA, FIG. 6
Procedure: The insulin-FDKP formulation is administered to the subjects by oral inhalation using a MEDTONE® dry powder inhaler (MannKind Corp.). Methods and results below are described in terms of the Original Protocol (OP), which includes the meal challenge in 18 subjects with three treatments (EXUBERA®, lispro and TI) and Amendment 1 (A1), which includes 12 subjects treated with only TI and lispro. […] The subjects were screened and evaluated before, during and after the experiments and their data analyzed as described below. Subjects were selected based on several key inclusion criteria, including, male and female, having ≥18 and ≤70 years of age with clinical diagnosis of type 2 diabetes mellitus for 12 months. […] Blood glucose concentrations were measured at regular intervals from arterialized venous blood samples. […] EGP was determined by measurement of 6,6-^2H2 glucose applying the modified calculations for the non-steady state ([…], and D. T. Stein. Calculating glucose fluxes during meal tolerance test: a new computational approach. Am.J.Physiol Endocrinol.Metab 293 (2):[…]-[…], 2007). C-peptide concentrations were measured pre- and post-dose to assess endogenous insulin secretion. In addition, glucagon and free fatty acid concentrations were also determined.

[5] = manufacturer's prescribing information (Mar. 2007 revision); cited from earlier work

For insulin aspart, the “mean FPG at the end of the treatment period” value ([1]; 52 weeks) was 161.3 (SD 68.2) mg/dL, the “average body weight gain over the 52-week treatment period” value [1] was 1.4 kg and the “HbA1c at Week 14” value ([1]; baseline 8.41 (SD 0.92) TI arm, 8.48 (SD 0.97) insulin aspart arm) was 8.07 (SD 1.09) %. For the same substance, the “mean decrease in fasting plasma glucose (FPG) over the 52-week treatment period” value ([1]; baseline 187.6 (SD 85.1) TI group, 180.8 (SD 86.9) comparator group) was 23.4 (SD 103.1) mg/dL.

In the case of insulin lispro, the “time at which glucose disappearance rate peaked after dosing” value [2] is reported as “about 100 minutes”, the “median tmax of insulin concentrations” value [3] is reported as 1.25 h and the “time at which glucose disappearance rate peaked after dosing” value [4] is reported as “about 120 minutes”.

For insulin glargine, the “period of relatively constant glucose lowering activity” value [5] is given as 24 h.

Source: patent publication US11931404B2, “Use of ultrarapid acting insulin” (MannKind Corporation, priority 2014, dated 2024)
